According to patent US20080199423A1, “Methods of Using Apo2l Receptor Agonists and Ink Cell Activators” (GENENTECH, INC., priority 2004, published 2008):
“Also recorded” adds a separate entry of the source. The star is where a group is joined. Cbz = O=C(OCc1ccccc1)*; CH2F = FC*

What was measured:
[1] = tested on: 4T1 cells; experiment: Lysis of 4T1 cells by activated NK cells treated with inhibitors; type: cell-based, mouse; details: E/T ratio 25 to 1
Procedure: (§1) The cytolytic activity of resting and activated NK cells was evaluated against 4T1 target cells. The activated NK cells were treated with inhibitors of Perforin maturation (concanamycin A), GraB (Z-AAD-FMK), PI3K (wortmannin), MEK1 kinase (PD98059), S6 kinase (rapamycin) and JNK (SP) to assess the role of cytotoxic granules. The E/T ratio was 25 to 1, and results shown are from one representative donor (out of three donors). […] 4T1 target cells were treated with Apo2L/TRAIL protein (100 ng/ml) or with activated NK cells (“Act NK”) for 30 minutes, 1 hour or 4 hours. The E/T ratio was 10:1. Extracts of the 4T1 cells were analysed by SDS-PAGE and immunoblot analysis for pro-caspase-3, cleaved caspase-3 and cleaved PARP.
For the cytotoxicity assays, target cells were labeled with 100 mCi ^51Cr for 1 hour at 37° C. and then washed 3 times before use. […] The cytotoxicity assays were performed in round bottom 96 well plates and the percent specific lysis was calculated as 100× (experimental cpm-spontaneous cpm)/(total cpm-spontaneous cpm). The role of Apo2L/TRAIL expressed by NK cells in the lysis of target cells was evaluated using anti-Apo2L/TRAIL mAbs (5C2 and 1D1, Genentech, Inc.). […]

[2] = tested on: B16BL10 melanoma cells; experiment: 51Cr release cytotoxicity assay on B16 melanoma target cells; type: cell-based, mouse
Procedure: (§2) Purified NK cells were treated with poly(I:C) or R-848 and incubated with B16BL10 melanoma cells (ATCC) at the indicated ratios. Purified NK cells stimulated with R-848 were incubated with HCT116 target cells (ATCC) at the indicated ratios. The role of Apo2L/TRAIL in lysis assays in panels B and C was determined by preincubation with neutralizing (5C2) and non-neutralizing (1D1) anti-Apo2L/TRAIL mAbs. The data has been confirmed with NK cells from at least 3 donors and less that 5% SD was observed.
(§3) For the cytotoxicity assays, target cells were labeled with 100 mCi ^51Cr for 1 hour at 37° C. and then washed 3 times before use. 10^4 target cells were added to varying numbers of effector cells at the indicated ratios and incubated in duplicate wells for 4 hours at 37° C., 5% CO2, and supernatants were used to determine ^51Cr released using a Gamma counter. The cytotoxicity assays were performed in round bottom 96 well plates and the percent specific lysis was calculated as 100× (experimental cpm-spontaneous cpm)/(total cpm-spontaneous cpm). The role of Apo2L/TRAIL expressed by NK cells in the lysis of target cells was evaluated using anti-Apo2L/TRAIL mAbs (5C2 and 1D1, Genentech, Inc.). Isotype control antibodies were obtained from BD Biosciences.

[3] = tested on: HCT116 cells; experiment: 51Cr release cytotoxicity assay on HCT116 target cells; type: cell-based
Procedure: as §2, §3

[4] = tested on: cell surface Apo2L/TRAIL on NK cells; experiment: Flow cytometry of cell surface Apo2L/TRAIL on purified NK cells; type: cell-based, human; details: 5C2-Alexa 488 staining
Procedure: Cell surface Apo2L/TRAIL on purified NK cells treated with poly(I:C), R-848 or hIL-2 (30 ng/ml, BD Biosciences) was also analyzed by cytometry. Isotype control (IgG2a, Sigma) and anti-Apo2L/TRAIL antibody (5C2) were labeled with Alexa 488 (Molecular Probes). 5×10^5 cells were incubated with 2 μg of human IgG to block FcRs and 1 μg of the directly labeled mAbs at 4° C. for 45 minutes, followed by 2 washes. Stained cells were analyzed using a FACScan cytometer (Becton Dickenson) and Cellquest software.

[5] = tested on: 4T1 cells; experiment: 51Cr release cytotoxicity assay, purified human NK cells on 4T1 target cells; type: cell-based, mouse; details: for Lysis of 4T1 cells by NK cells treated with TLR activating agent: NK cells treated for 18 hours with agent, 4 hour incubation, E:T 1:1 to 50:1
Procedure: 4T1 cells (a metastatic mammary carcinoma cell line derived from BALE/C mice, obtained from Fred Miller, Karmanos Cancer Institute) were assayed in an in vitro cytotoxicity assay to examine tumoricical effects of various Toll receptor (“TLR”) activators and NK cells. The 4T1 target cells were cultured in IDMEM medium supplemented with 10% FCS, glutamine and penicillin/streptomycin, labeled with 100 mCi ^51Cr for 1 hour at 37° C. and then washed three times with culture medium.
To prepare purified effector NK cells for the assay, PBMCs from healthy human donors were isolated by standard density-gradient centrifugation over Ficoll-Paque Plus (Pharmacia). CD3 positive cells were first depleted using anti-CD3 microbeads (obtained from Miltenyi), and then the NK cells were purified using anti-CD56 microbeads (Miltenyi). The purity of the NK cell preparation was 95% or higher as determined by staining with mouse anti-human CD56 PE and mouse anti-human CD14 PE conjugates (BD Biosciences). The isolated cells were cultured in RPMI 1640 supplemented with heat inactivated 10% FCS, penicillin, streptomycin, 10 mM sodium pyruvate, 2 mM L-glutamine and 10 mM HEPES.
10^4 of the labeled 4T1 cells were added to varying numbers of purified NK cells (either untreated control NK cells or NK cells treated with specific agent) at ratios of 1:1, 3:1, 6:1, 12:1, 25:1, and 50:1, respectively. NK cells were treated for 18 hours with one of the following TLR activating agents: sBLP (1 μg/ml, Bachem); poly(I:C) (50 μg/ml, Pharmacia); E. coli 055:B5 LPS (phenol extracted, 1 μg/ml, Sigma); Flagellin (1 μg/ml, A. Gewirtz, Emory Univerity); R-848 (5 μg/ml, Invivogen); CpG oligonucleotides (2006 and 2216, 5 μM, Invivogen). The cytotoxicity assays were performed in round bottom 96 well plates, and the samples were incubated in duplicate wells for 4 hours at 37° C., 5% CO2. RPMI 1640 supplemented with heat inactivated 10% FCS, penicillin, streptomycin, 10 mM sodium pyruvate, 2 mM L-glutamine and 10 mM HEPES was used during incubation.
After the 4 hour incubation, supernatants were aspirated from the wells and examined for ^51Cr release using a Gamma counter. The percent specific lysis was calculated as 100× (experimental cpm-spontaneous cpm)/(total cpm-spontaneous cpm). The data are representative of at least three experiments and <5% SD was observed.
A cytotoxicity assay was performed as described in Example 1, except for the following modifications. Purified NK cells were treated with poly(I:C) or R-848 overnight and incubated with 4T1 cells. The role of TNF-alpha, FasL, and Apo2L/TRAIL was evaluated by preincubation of the NK cells with neutralizing antibodies to the respective ligands. The following neutralizing antibodies were added at final concentration of 2 μg/ml: anti-Fas-L (mIgG2b, R&D Systems), anti-TNF-alpha (mIgG1, Genentech), and anti-Apo2L/TRAIL (5C2, mIgG2a, ATCC HB-12258 and 1D1, mIgG2b; ATCC HB-12257). Isotype control antibodies were obtained from BD Biosciences.
as §3

[6] = tested on: Apo2L/TRAIL mRNA in NK cells; experiment: RT-QPCR of Apo2L/TRAIL message in treated NK cells; type: cell-based, human
Procedure: In another experiment, the purified NK cells were treated for 18 hours in RPMI 1640 supplemented with heat inactivated 10% FCS, penicillin, streptomycin, 10 mM sodium pyruvate, 2 mM L-glutamine and 10 mM HEPES with poly(I:C) (50 μg/ml), R-848 (5 μg/ml) or hIFN-alpha (1000 U/ml, Sigma) in the presence or absence of 10 μg/ml cycloheximide and Apo2L/TRAIL was measured in the extracted RNA. RT-PCR was performed and the amount of cDNA was quantitated by RT-QPCR analysis, normalized to RPL19, and fold induction over control is shown in FIG. 2A. Primers were designed as per instructions (Primer Express) and sequences are: hRPL19-probe: […] (SEQ ID NO:7); hRPL19-For: […] (SEQ ID NO:8); hRPL19-Rev: […] (SEQ ID NO:9); hApo2L-probe: […] (SEQ ID NO:10); hApo2L-For: […] (SEQ ID NO:11); hApo2L-Rev: […] (SEQ ID NO:12). cDNA was analyzed for expression of RPL19 and Apo2L/TRAIL by RT-QPCR (Applied Biosystems) as described in Zarember et al., J. Immunol., 168(2):554-61 (2002). Fold increase values are expressed as arbitrary units, relative to the calibrator gene RPL19.

[7] = tested on: caspase-3 and PARP cleavage in 4T1 cells; experiment: Immunoblot for caspase-3 and PARP cleavage in 4T1 cells; type: cell-based, mouse
Procedure: as §1
4T1 cells were treated with Apo2L/TRAIL, resting NK cells (“NK”) or activated NK cells (“Act NK”) separately or in combination. The lysates were analyzed for cleavage of PARP, an indicator of caspase-3 activation. NK cells from multiple donors were utilized and results from one representative donor are shown. […]
Total cell extracts were prepared from 4T1 cells using lysis buffer (0.1 M Tris pH 8.0, 500 mM NaCl, 2 mM EDTA, […], 10% glycerol, supplemented with Complete Protease Inhibitor Cocktail, Roche), and the lysates were clarified by centrifugation at 16,000 rpm for 10 minutes at 4° C. […] Immune complexes were detected using enhanced chemiluminesence (Amersham).

[8] = tested on: SKMES-1 cells; experiment: 51Cr release by SKMES-1 cells incubated with soluble Apo2L/TRAIL; type: cell-based; details: range of concentrations, 4 hours
Procedure: The role of Apo2L/TRAIL was evaluated by preincubation of NK cells with either a neutralizing (5C2) or non-neutralizing (1D1) mAb. The % lysis was plotted, and the results are representative of 3 experiments (less than 5% SD was observed). […] The supernatants were then assessed for Cr release. Similar cytolysis results were obtained in at least 3 experiments.
as §3

[9] = tested on: C57MG; experiment: 51Cr release cytotoxicity assay on C57MG cells; type: cell-based, mouse
[10] = tested on: 4T1 cells; experiment: Clonogenic potential of 4T1 cells; type: cell-based, mouse
Procedure: Since both cell surface Apo2L/TRAIL and perforin granules are essential for lysis of 4T1 cells, assays were conducted to examine if resting NK cells could be “armed” by the addition of soluble Apo-2L/TRAIL protein. There is precedence for membrane bound and soluble forms of TNF family members to display differential behavior upon application to the target cell. With the aim of corroborating the ^51Cr release assays, the clonogenic potential of 4T1 cells was evaluated by treatment with soluble Apo2L/TRAIL and resting NK cells.

Molecule: C/C=C/[C@H]1O[C@@](O)([C@@H](C)[C@H](O)[C@H](C)[C@H]2OC(=O)/C(OC)=C/C(C)=C/[C@@H](C)[C@@H](O)[C@@H](CC)[C@@H](O)[C@H](C)C/C(C)=C/C=C/[C@@H]2OC)C[C@@H](O[C@H]2C[C@@H](O)[C@H](OC(N)=O)[C@@H](C)O2)[C@@H]1C [Concanamycin A]
- Effect of inhibitor treatment of activated NK cells on lysis of 4T1 cells [1]: blocked the cytotoxic activity

Molecule: CCOCc1nc2c(N)nc3ccccc3c2n1CC(C)(C)O [R-848]
- Killing of B16 melanoma cells by stimulated NK cells ([2]; NK cells stimulated with agent): efficiently killed
- Cytotoxicity of stimulated NK cells towards HCT116 cells ([3]; NK cells stimulated with agent): increased cytoxicity
- Cell surface expression of Apo2L/TRAIL on NK cells [4]: detectable cell surface expression
- Lysis of 4T1 cells by NK cells treated with TLR activating agent [5]: efficiently killed
- Increase of Apo2L/TRAIL mRNA over control ([6]; NK cells treated 18 hours, normalized to RPL19): 25 fold

Molecule: C[C@@H]1C[C@@H]([C@H](O)CC2CC(=O)NC(=O)C2)C(=O)[C@@H](C)C1 [cycloheximide]
- Effect of protein synthesis inhibitor on induction of Apo2L/TRAIL message in stimulated NK cells ([6]; 10 μg/ml cycloheximide, poly(I:C), R-848 or IFN-alpha stimulated): not blocked

Molecule: Apo2L/TRAIL: recombinant Apo2L/TRAIL (amino acids 114-281), prepared as in Ashkenazi et al. 1999
- Cleavage of pro-caspase-3 and PARP in 4T1 cells, Apo2L/TRAIL alone ([7]; 100 ng/ml, 30 minutes, 1 hour or 4 hours): did not result in cleavage
- PARP cleavage in 4T1 cells, resting NK cells along with soluble Apo2L/TRAIL ([7]; combined treatment): production of cleaved PARP
- 51Cr release by SKMES-1 cells, Apo2L/TRAIL alone [8]: effectively mediated release
- Lysis of B16BL10 cells, Apo2L/TRAIL added to activated NK cells ([2]; plus activated NK cells): no significant increase
- Lysis of B16BL10 cells, Apo2L/TRAIL added to resting NK cells ([2]; plus resting NK cells): increased the lysis observed
- Apoptotic effect of Apo2L/TRAIL protein alone on B16 cells ([2]; range of concentrations, no NK cells): certain resistance
- Cytotoxic effect on HCT116 cells, Apo2L/TRAIL with limiting ratios of resting NK cells ([3]; 5 ng/ml Apo2L/TRAIL plus resting NK cells): enhanced cytotoxic effect
- Lysis of HCT116 cells by Apo2L/TRAIL alone ([3]; 5 ng/ml Apo2L/TRAIL, no NK cells): no lysis
- 51Cr release by HCT-116 cells, Apo2L/TRAIL alone ([3]; range of concentrations, 4 hours): effectively mediated release
- Lysis of 4T1 cells, Apo2L/TRAIL with resting NK cells ([5]; increasing concentrations of Apo2L/TRAIL plus resting NK cells): dose dependent lysis
- Lysis of 4T1 cells, Apo2L/TRAIL added to activated NK cells ([5]; plus activated NK cells): Some increase
- Lysis of 4T1 cells by Apo2L/TRAIL protein alone ([5]; range of concentrations, up to 2 μg/ml, no NK cells): resistant to lysis; also recorded: certain resistance
- Lysis of C57MG cells, Apo2L/TRAIL added to activated NK cells ([9]; plus activated NK cells): no significant increase
- Lysis of C57MG cells, Apo2L/TRAIL added to resting NK cells ([9]; plus resting NK cells): increased the lysis observed
- Clones of 4T1 cells, simultaneous soluble Apo2L/TRAIL and resting NK cells ([10]; NK cells at ratio 25 to 1, after 5 days): dramatic reduction in clones
- Clonogenic capacity of 4T1 cells, soluble Apo2L/TRAIL alone ([10]; individual treatment): not affected in terms of clonogenic capacity

Molecule: Cbz-Ala-Ala-Asp-CH2F [GraB inhibitor]
- Effect of inhibitor treatment of activated NK cells on lysis of 4T1 cells [1]: reduction in lysis

Molecule: Flagellin
- Lysis of 4T1 cells by NK cells treated with TLR activating agent [5]: neither BLP, LPS, Flagellin, nor the CpG oligonucleotides induced cytotoxic activity
